According to US9642897B2, “Treatment of bone diseases” (THE UNIVERSITY OF SYDNEY, priority 2011, dated 2017):

How the values were obtained:
[1] = tested on: bone marrow stromal cells (BMSC) from IDO-1 KO and WT mice; assay: Osteogenic differentiation of BMSC from IDO-1 KO and WT mice (alizarin red); assay type: cell-based; details: vs vehicle
Description: One side tibiae from 9-month-old IDO-1^−/− and IDO-1^+/+ mice (n=6 per group) were flushed using a 21-gauge needle attached to a 10 ml syringe filled with Dulbecco's modified Eagle's medium (DME) (GIBCO BRL, Gaithersburg, Md., USA). The bone marrow cells were filtered through a cell strainer with a 70-micron nylon mesh (BD Bioscience, Bedford, Mass., USA) and plated in 10 cm^2 tissue culture dishes. The cells were incubated in growth medium at 37° C. with 5% humidified CO2 and isolated by their adherence to tissue culture plastic. Medium was aspirated and replaced with fresh medium every 2 to 3 days to remove non-adherent cells. The adherent MSC were grown to confluency for about 7 days and defined as MSC at passage 0, harvested with 0.25% trypsin and 1 mM EDTA for 5 min at 37° C., diluted 1:3 in growth medium, plated and grown to confluency for further expansion. After 2nd and 3rd passages, MSC were used for subsequent experiments.
To induce differentiation, a total of 10^4 cells were diluted in osteogenic medium and plated in 24 dishes per group in the presence or absence of either quinolinic or picolinic acid. Media was aspirated and replaced with fresh osteogenic medium every 3 days. At 21 days, medium was removed and cultures were fixed in 10% v/v formol/saline solution for 5 min. Cultures were stained with Alizarin Red, which was then extracted and quantified at 570 nm.

Runx2 and OCN = assay: Western blot of Runx2 and OCN in bone marrow cells of PA-treated mice; assay type: in vivo, C57BL/6 mice
Description: Marrow cells were obtained from the left femur of PA- and vehicle-treated animals (n=6 per group) by flushing with Dulbecco's alpha modified medium (DMEM). Red blood cells in marrow cells were hemolyzed in 0.017 M tris-HCl, pH 7.5, buffer containing 0.8% ammonium chloride. Hemolyzed bone marrow suspensions were rinsed twice with phosphate buffered saline (PBS). Protein extracts were obtained after suspending the cells in 2 volumes of buffer containing 10 mM EDTA, 0.5 mM phenylmethylsulfonyl fluoride, and one Complete™ protease inhibitor mixture tablet (Boehringer Mannheim, Laval, Quebec, Canada). […] Protein content was determined with a protein assay kit (Bio-Rad. Mississauga, Ontario), and samples were then aliquoted and stored at −80° C. […] Antigen-antibody complexes were detected by chemiluminescence using a kit of reagents from ECL (Amersham, UK) and blots were exposed to high-performance chemiluminescence film (Amersham, UK). Films were scanned and the optical density of each specific band analysed using the ImageMaster program and expressed as OD/mm2/100 μg of total protein. Relative intensity of the samples was determined comparing the protein of interest in the treated mice using the values of vehicle-treated mice as controls (100%). […]

[2] = tested on: OVX C57BL/6 mice (osteoporosis model); assay: Quantitative μCT of femur and vertebrae in Sham and OVX mice; assay type: in vivo; details: oral PA 6 weeks
Description: Nine-month-old oophorectomised (OVX) and SHAM-operated C57BL/6 mice (n=24 per group) were obtained from the Animal Resources Centre (Perth, Wash.). After 2 weeks of acclimation, mice were divided into four groups (Table 2) and received treatment in their drinking water for a total of 6 weeks. Mice treated with plain water were used as controls. Mice were housed in cages in a limited access room. Mice were administered a lethal dose of anaesthetic at the indicated times, exsanguinated, and imaged using a Faxitron MX20 equipped with an FPX-2 Imaging system (Dalsa Medoptics, Waterloo, Ontario, Canada). μ-CT was performed on the left femur and lumbar vertebrae after removal of soft tissues and overnight fixation in 4% paraformaldehyde. The distal metaphysis of the femur and the body of the vertebrae were scanned with a Skyscan 1072 micro-CT instrument (Skyscan, Antwerp, Belgium). Image acquisition was performed at 100 kV and 98 μA, with a 0.9° rotation between frames. The two-dimensional images were used to generate three-dimensional reconstructions to obtain quantitative data with the 3D Creator software supplied with the instrument. Nomenclature and abbreviations of 3D-μCT parameters follow the recommendations of the American Society of Bone and Mineral Research (see Bouxsein et al. (2010), “Guidelines for assessment of bone microstructure in rodents using micro-computed tomography”, J Bone Miner Res., 25: 1468-1486).

[3] = tested on: bone marrow stromal cells (BMSC); assay: Ex vivo cultures of BMSC from PA-treated mice (alizarin red, ALP, CFU-OB); assay type: in vivo, C57BL/6 mice
Description: To establish adherent bone marrow cultures, both tibiae from PA- and vehicle-treated animals (n=6 per group) were flushed using a 21-gauge needle attached to a 10 ml syringe filled with Dulbecco's modified Eagle's Medium (DMEM) (GIBCO BRL, Gaithersburg, Md., USA). Cells from both tibiae were filtered through a cell strainer with 70-micron nylon mesh (BD Bioscience, Bedford, Mass., USA) and then combined to produce a volume of 2 ml containing ˜10^7 cells/ml. Six-well plate cultures were then established in triplicate, with each well containing a 100-μl aliquot of cell suspension combined with 4 ml of fresh -MEM medium. […]
To induce differentiation, a total of 10^4 cells were diluted in osteogenic medium (prepared with DMEM, 10% FCS, […] dexamethasone, 10 mmol/L β glycerol phosphate and 50 μg/mL ascorbic acid) and plated in six well plates. […] For alkaline phosphatase quantification, the colonies with more than 10% of cells staining positive for ALP were considered as colony forming units-osteoblasts (CFU-OB). For alizarin red quantification, matrix mineralization was quantified by extracting the Alizarin red staining with 100 mM cetypyridinium chloride (Sigma, St. Louis, Mo., USA) at room temperature for 3 h. The absorbance of the extracted Alizarin red S staining was measured at 570 nm.

## O=C(O)c1ccccn1 [PA, pyridine-2-carboxylic acid]
[1]
  mineralisation (alizarin red staining): higher levels of mineralisation
Runx2 and OCN
  protein expression of OCN and Runx2 (immunoblot): significant increase
[2]
  bone relative to tissue volume (BV/TV): significant and dose-dependent increase
  numbers of trabeculae (Tb.N): increased
  thickness of trabeculae (Tb.Th): increased
[3]; SHAM and OVX mice treated 6 weeks, 2 weeks culture in osteogenic media
  capacity to mineralise (alizarin red), ex vivo BMSC: significantly capacity to mineralise
[3]; cultures from PA-treated vs vehicle treated mice
  number of colony forming units-osteoblasts (CFU-OB): significantly higher
